Data as given in paper PMC12486301 (The Journal of pharmacology and experimental therapeutics, 2025).
Where “and” joins values, the source holds several entries; their conditions need not be identical. Identical values can stand only once. Like-named read-outs stand apart in the source and are kept apart here.

Tests used:
[1] = tested on: HeLa S2 cell line; test: Functional assessment: NBMPR block of [3H]uridine uptake in HeLa S2 cells; assay type: cell-based, human; details: 100 nM NBMPR, 2 minutes
[2] = tested on: HeLa FlpIn ENT2 cell line; details: 2 minutes
[3] = target: T1, ENT1 (Homo sapiens, UniProt Q99808); test: Inhibition of [3H]uridine uptake into WT HeLa; assay type: cell-based; details: for inhibition at 20 µM: HeLa
T1 sequence (Q99808 1-456): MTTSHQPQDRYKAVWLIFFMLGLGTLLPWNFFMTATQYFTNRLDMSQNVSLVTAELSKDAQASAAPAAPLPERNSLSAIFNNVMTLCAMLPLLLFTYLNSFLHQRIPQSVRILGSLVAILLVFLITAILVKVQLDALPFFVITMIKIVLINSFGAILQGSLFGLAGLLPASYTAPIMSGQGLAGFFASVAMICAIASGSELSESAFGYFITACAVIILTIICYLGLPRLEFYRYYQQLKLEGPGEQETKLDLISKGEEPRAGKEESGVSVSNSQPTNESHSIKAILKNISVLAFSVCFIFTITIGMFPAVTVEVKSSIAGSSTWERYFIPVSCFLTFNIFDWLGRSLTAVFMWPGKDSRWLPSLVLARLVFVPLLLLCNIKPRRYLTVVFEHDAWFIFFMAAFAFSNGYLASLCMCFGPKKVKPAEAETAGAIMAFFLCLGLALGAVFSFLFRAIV

[4] = target: T2, ENT2 (Homo sapiens, UniProt Q14542); test: Inhibition of [3H]uridine uptake into HeLa FlpIn cells overexpressing hENT2; assay type: cell-based; details: for inhibition at 20 µM: HeLa
T2 sequence (Q14542 1-456): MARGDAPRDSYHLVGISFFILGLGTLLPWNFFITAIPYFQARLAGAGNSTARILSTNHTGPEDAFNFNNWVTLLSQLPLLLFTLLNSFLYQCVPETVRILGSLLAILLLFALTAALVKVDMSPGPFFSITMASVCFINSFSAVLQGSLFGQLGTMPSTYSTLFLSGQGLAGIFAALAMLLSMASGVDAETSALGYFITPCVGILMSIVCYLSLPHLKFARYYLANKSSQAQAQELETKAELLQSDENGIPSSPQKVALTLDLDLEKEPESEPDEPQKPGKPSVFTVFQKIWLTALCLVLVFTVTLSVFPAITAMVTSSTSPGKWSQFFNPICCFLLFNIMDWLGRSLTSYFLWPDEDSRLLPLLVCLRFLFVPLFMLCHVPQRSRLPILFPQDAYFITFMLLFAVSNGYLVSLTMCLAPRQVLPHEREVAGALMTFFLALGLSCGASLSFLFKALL

[5] = ref Table S8, cited from earlier work
[6] = target: T1, ENT1; test: Kinetics of radiolabeled uridine uptake, ENT1 cell line; assay type: cell-based; details: 5 min uptake, pH 7.4
[7] = target: T2, ENT2; details: 5 min uptake, pH 7.4
[8] = read-out: ENT1 % Inhibition (20μM)
[9] = read-out: ENT2 % Inhibition (20μM)
[10] = read-out: ENT1 inhibition of uridine uptake (Spectrum screen, text)
[11] = read-out: ENT2 inhibition of transport activity (Spectrum screen, text)

Row | inhibition at 20 µM [3, 10] [%] | inhibition at 20 µM [4, 11] [%] | SMILES | IC50 [3] [µM] | inhibition at 20 µM [3, 8] [%] | IC50 [4] [µM] | inhibition at 20 µM [4, 9] [%] | other results
1 | – | – | O=[N+]([O-])c1ccc(CSc2ncnc3c2ncn3C2OC(CO)C(O)C2O)cc1 (centres unmarked) [NBMPR, nitrobenzylthioinosine] | – | – | – | – | reduction of [3H]uridine uptake [1]: 65–75%; total [3H]uridine uptake blocked ([2]; 100 nM NBMPR): ~ 55%; total [3H]uridine uptake reduced ([2]; 100 μM NBMPR): ~ 80%
2 | – | – | CC(=O)N1CCN(c2ccc(OCC3COC(Cn4ccnc4)(c4ccc(Cl)cc4Cl)O3)cc2)CC1 (centres unmarked) [ketoconazole] | 7.2 ± 1.2 | 98.4 | 22.8 ± 0.7 | 89.4 | human plasma levels (molar) ([5]; converted from ng/mL): 6.6 µM and 11.3 µM; human plasma levels ([5]; documented clinical concentrations): 3500 ng/mL and 6000 ng/mL
3 | ~80 | 35 | COc1ccc(-c2cc(=O)c3c(OC)c(OC)c(OC)cc3o2)cc1OC [sinensetin] | 1.25 ± 0.3 | 95.9 | 22.2 ± 2.2 | 82.5 | –
4 | ~80 | 35 | C=CC[C@@H]1/C=C(\C)C[C@H](C)C[C@H](OC)[C@H]2O[C@@](O)(C(=O)C(=O)N3CCCC[C@H]3C(=O)O[C@H](/C(C)=C/[C@@H]3CC[C@@H](O)[C@H](OC)C3)[C@H](C)[C@@H](O)CC1=O)[C@H](C)C[C@@H]2OC [tacrolimus] | – | – | – | – | –
5 | – | – | O=c1ccn([C@@H]2O[C@H](CO)[C@@H](O)[C@H]2O)c(=O)[nH]1 [uridine] | – | – | – | – | Jmax, maximal rate of uridine transport [6]: 20.2 ± 5.1 pmol·cm^−2·min^−1; Kt, Michaelis constant for uridine [6]: 37.7 ± 12.9 µM; Kt, Michaelis constant for uridine [7]: 119.1 ± 28.9 µM
